Results from PubChem BioAssay (NCI).
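Tested at 5 concentrations; 48 h exposure; 96-well plates; endpoints linearly interpolated, else capped at highest concentration. The concentration for 50% growth inhibition is given as GI50. TGI marks complete inhibition of growth.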

Columns and labels:
Assay in all cases: inhibition of tumour cell growth, NCI panel, 48 h
HL-60(TB) leukemia = system: HL-60(TB) leukemia
SK-MEL-5 melanoma = system: SK-MEL-5 melanoma
LXFL 529 NSCLC = system: LXFL 529 NSCLC
HCC-2998 colon = system: HCC-2998 colon
LOX IMVI melanoma = system: LOX IMVI melanoma
CAKI-1 renal = system: CAKI-1 renal
KM20L2 colon = system: KM20L2 colon
HS 578T breast = system: HS 578T breast
PC-3 prostate = system: PC-3 prostate
T-47D breast = system: T-47D breast

Row | Compound | TGI (HL-60(TB) leukemia) [µM] | TGI (SK-MEL-5 melanoma) [µM] | TGI (LXFL 529 NSCLC) [µM] | TGI (HCC-2998 colon) [µM] | TGI (LOX IMVI melanoma) [µM] | TGI (CAKI-1 renal) [µM] | TGI (KM20L2 colon) [µM] | GI50 (HL-60(TB) leukemia) [µM] | GI50 (SK-MEL-5 melanoma) [µM] | GI50 (LXFL 529 NSCLC) [µM] | GI50 (LOX IMVI melanoma) [µM] | GI50 (CAKI-1 renal) [µM] | GI50 (KM20L2 colon) [µM] | GI50 (HS 578T breast) [µM] | TGI (HS 578T breast) [µM] | GI50 (HCC-2998 colon) [µM] | GI50 (PC-3 prostate) [µM] | TGI (PC-3 prostate) [µM] | GI50 (T-47D breast) [µM] | TGI (T-47D breast) [µM]
1 | S=c1sc2c(n1-c1ccccc1)NC=NC2S (stereo not drawn) | > 100 | > 100 | > 100 | > 100 | > 100 | > 100 | > 100 |  |  |  |  |  |  |  |  |  |  |  |  | 
2 | COc1nc(NC2OC(COC(C)=O)C(OC(C)=O)C(OC(C)=O)C2OC(C)=O)c2c(OC(C)=O)cc(=O)oc2n1 (stereo not drawn) | > 100 | > 100 | > 100 | > 100 | > 100 | > 100 | > 100 |  |  |  |  |  |  |  |  |  |  |  |  | 
3 | N#C/C(=C\c1cccc(Cl)c1Cl)c1ccccc1 | > 100 | > 100 | > 100 | > 100 | > 100 | 77.7 | > 100 |  |  |  |  |  |  |  |  |  |  |  |  | 
4 | CC(C)(C)c1cc2c(O)c3cccc4c(=O)c5cccc6c5-c(c34)c2c(c1)c6=O | > 100 |  | > 100 | 0.0657 | > 100 | > 100 | > 100 |  |  |  |  |  |  |  |  |  |  |  |  | 
5 | Cc1cccc(C)c1NC(=O)CCCC(=O)C1/C(=N/NC(=O)CC#N)CCC/C1=N\NC(=O)CC#N (stereo not drawn) | > 100 | > 100 | > 100 | > 100 |  | > 100 | > 100 |  |  |  |  |  |  |  |  |  |  |  |  | 
6 | O=C(/C=C/c1ccc([N+](=O)[O-])cc1)c1ccc(NCc2nc3ccccc3[nH]2)cc1 | 4.25 | 16.3 | 8.61 | 6.38 | 6.54 | 21.2 | 15.3 |  |  |  |  |  |  |  |  |  |  |  |  | 
7 | C=CC[C@H](C[C@H](C[C@H](C[C@H](C[C@H](C[C@H](C[C@H](C[C@H](C[C@H](C[C@H](CCCCC)OC)OC)OC)OC)OC)OC)OC)OC)OC)OC | > 100 | > 100 |  | > 100 | > 100 | > 100 | > 100 |  |  |  |  |  |  |  |  |  |  |  |  | 
8 | C/C(=N/Nc1ccc([N+](=O)[O-])cc1[N+](=O)[O-])C(CC(C(=O)NCc1ccccc1)/C(C)=N\Nc1ccc([N+](=O)[O-])cc1[N+](=O)[O-])C(=O)NCc1ccccc1 (stereo not drawn) |  |  | 23.6 | 33.9 |  | 20.4 | 37.5 |  |  |  |  |  |  |  |  |  |  |  |  | 
9 | C=C(C)CCOC(c1ccccc1)(c1ccccc1)c1ccccc1 | > 100 | > 100 | > 100 | > 100 | 79.2 | > 100 | > 100 |  |  |  |  |  |  |  |  |  |  |  |  | 
10 | CCc1c(OC(C)=O)c2c(NC3OCC(OC(C)=O)C(OC(C)=O)C3OC(C)=O)nc(SC)nc2oc1=O (stereo not drawn) | > 100 | > 100 | > 100 | > 100 | > 100 | > 100 | > 100 |  |  |  |  |  |  |  |  |  |  |  |  | 
11 | O=c1ccc2ccccc2cc1[O-].O=c1ccc2ccccc2cc1[O-].[O]=[U+2]=[O] | 52.3 | 29.4 | 51.6 |  | > 100 | 51.9 | 90.1 | 14 | 4.99 | 16.8 | 14.1 | 9.44 | 4.5 |  |  |  |  |  |  | 
12 | O=C(Nc1ccccc1-c1nn(C(=S)Nc2ccccc2)c(=S)n(C(=S)Nc2ccccc2)c1=O)C(F)(F)F | 58.5 | 26 | 54 | > 72.5 | > 66.1 | > 100 | > 100 |  |  |  |  |  |  |  |  |  |  |  |  | 
13 | CCCCN(CCCC)C(=O)C(=O)C(C(=O)c1ccc(OC)cc1)c1ccc(OC)cc1 (stereo not drawn) | > 100 | > 100 | > 100 | > 100 | > 100 | > 100 | > 100 |  |  |  |  |  |  |  |  |  |  |  |  | 
14 | COC(=O)CC(c1ccccc1)C1(c2ccccc2)SCCS1 (stereo not drawn) | > 290 | > 290 | > 290 | > 290 | > 290 | > 290 | > 290 |  |  |  |  |  |  |  |  |  |  |  |  | 
15 | O=C1C=CC(=O)c2nc3c(cc21)CCC3 |  | 45.9 | 29 | > 100 | 29.9 | 31.4 |  |  |  |  |  |  |  |  |  |  |  |  |  | 
16 | c1ccc(NCn2cnc3ccccc32)cc1 |  | > 100 | > 100 |  | > 100 |  | > 100 |  |  |  |  |  |  |  |  |  |  |  |  | 
17 | CCN(Cc1ccc(F)cc1)c1cc(Cl)c(CO)c(Cl)c1 | 32.6 | 26.5 |  | 28.1 | 29.3 | 32.1 |  | 13 | 13.5 |  | 14.7 | 13.5 |  | 12.2 | 33.4 | 13.9 | 11.3 | 24.7 | 7.47 | 26.5
18 | CCOC(=O)C1=C(C(=O)OCC)C2c3ccccc3C=CN2C(C(=O)OCC)=C(SC)S1 (stereo not drawn) | > 100 | > 100 | > 100 | > 100 | > 100 | > 100 | > 100 |  |  |  |  |  |  |  |  |  |  |  |  | 
19 | CN(C)CCn1c2c3ccccc3ccc2c2oc(=O)c3ccccc3c21 | > 100 |  | 17.2 |  | 27.7 | 25.9 | 33.8 |  |  |  |  |  |  |  |  |  |  |  |  | 
20 | CCN(C(=O)N1CCN(c2cc3c(cc2F)c(=O)c(C(=O)O)cn3C2CC2)CC1)c1nc(-c2ccc(Cl)cc2)cs1 | 1.77 | 15.9 |  | > 28.6 | 1.63 | 11.4 |  | 0.669 | 1.99 |  | 0.37 | 2.17 |  | 1.26 | 13 | 2.83 | 0.858 | > 26 | 1.99 | > 100
21 | COc1cccc(-c2nc(-c3ccc(NC(=O)OC(C)C)cc3)[nH]c2-c2ccnc(Br)c2)c1 | 4.06 | 3.65 |  | > 100 | 3.36 | > 100 |  | 1.38 | 1.88 |  | 1.49 | 2.49 |  | 0.308 | 1.69 | 2.71 | 2.62 | > 100 | 2.08 | 7.64
22 | COc1ccc(OC)c(N2CC(N)C2=O)c1 (stereo not drawn) | > 100 | > 100 |  | > 100 | > 100 |  | > 100 |  |  |  |  |  |  |  |  |  |  |  |  | 
23 | Cc1cc2c(C)[nH]nc2c(C(=O)O)c1C | > 100 |  | > 100 | > 100 |  | > 100 | > 100 |  |  |  |  |  |  |  |  |  |  |  |  | 
24 | O=S(=O)(N/N=C/c1cccc(/C=N/NS(=O)(=O)c2ccccc2)c1)c1ccccc1 | > 100 | > 100 | > 100 | > 100 | > 100 |  | > 100 |  |  |  |  |  |  |  |  |  |  |  |  | 
25 | COc1cccc(C(=O)NC(c2ccc(C)cc2)c2cc(Cl)c3cccnc3c2O)c1 (stereo not drawn) | 2.84 | 1.32 |  | 15.1 | 11.6 | 15.8 |  | 0.427 | 0.318 |  | 0.563 | 0.465 |  | 0.362 | 30.5 | 0.786 | 0.423 | 16.2 | 0.517 | 12.1
